The values below come from patent publication US20240343813A1, “COMBINATION THERAPY AND RELATED METHODS” (Bicara Therapeutics Inc., priority 2023, published 2024).

Series [1] has as its system TGFβ-induced hKRAS G12C resistant lung cancer cell line (H1792). Description: CellTiter Glo cytotoxicity in TGFβ-induced hKRAS G12C inhibitor resistant cells. Format: cell-based. To be noted: long-term TGFβ treated H1792 cells compared to control H1792 cells (wild type); 72 hours. As to the method:
Reports have shown that hKRAS G12C inhibitor efficacy is higher in cancer cells with a low epithelial-mesenchymal transition (EMT) signature compared to a high EMT signature. hTGFβ is known to induce EMT through canonical and non-canonical pathways in various cancers.
Briefly, hKRAS G12C inhibitor resistance was induced in H1792 cells by treating the cells with hTGFβ (4 ng/ml) for at least two weeks. […] Cytotoxicity was evaluated using the CellTiter Glo® Luminescent Cell Viability Assay according to manufacturer's instructions (Promega) (as described in Example 6.3).
(ATP-based viability assays read luminescence as a measure of living cells.)

In another series the test system is H358 lung cancer cells. Description: Long-term hKRAS G12C inhibitor treatment-induced resistance. Format: cell-based. To be noted: H358 treated with increasing concentrations of AMG510 for about one month; vs control (wild type) H358. The method, then: The effect of long duration treatment with a hKRAS G12C inhibitor on acquired hKRAS G12C inhibitor resistance was assessed utilizing an in vitro lung cancer model (H358). Briefly, H358 lung cancer cells were treated with increasing concentrations of the hKRAS G12C inhibitor AMG510 for about one month and cytotoxicity induced by AMG510 subsequently evaluated.

Turning to `C=CC(=O)N1CCN(c2nc(=O)n(-c3c(C)ccnc3C(C)C)c3nc(-c4c(O)cccc4F)c(F)cc23)[C@@H](C)C1` [AMG510, 6-fluoro-7-(2-fluoro-6-hydroxyphenyl)-(1M)-1-[4-methyl-2-(propan-2-yl)pyridin-3-yl]-4-[(2S)-2-methyl-4-(prop-2enoyl)piperazin-1-yl]pyrido[2,3-d]pyrimidin-2 (1H)-one], the “cytotoxicity in response to AMG510 treatment” value in series [1] is “less cytotoxicity”. The “acquired KRAS G12C inhibitor resistance (percent viability)” value with H358 lung cancer cells is “developed KRAS G12C inhibitor (AMG510) resistance”.
